Source: ChEMBL document CHEMBL5537163, “Discovery of Novel Phenoxyaryl Pyridones as Bromodomain and Extra-Terminal Domain (BET) Inhibitors with High Selectivity for the Second Bromodomain (BD2) to Potentially Treat Acute Myeloid Leukemia” (J Med Chem, 2024)

Columns and labels:
[1] = molecular target: T1, Voltage-gated inwardly rectifying potassium channel KCNH2 (Homo sapiens, UniProt Q12809); experiment: Inhibition of hERG expressed in HEK293 cells at -80 mV holding potential by whole-cell patch clamp technique; type: toxicity, cell-based
[2] = molecular target: T1, Voltage-gated inwardly rectifying potassium channel KCNH2; experiment: Inhibition of hERG in HEK293 cells at -80 mV holding potential by automated patch clamp electrophysiology; type: toxicity, cell-based
[3] = test system: MOLM-13; experiment: Antiproliferative activity against human MOLM-13 cells assessed as inhibition of cell proliferation incubated for 72 hrs by CellTiterGlo luminescence assay; type: functional, cell-based; details: MOLM-13, 72 h
[4] = test system: MV4-11; experiment: Antitumor activity against human MV4-11 cells xenografted in BALB/c nude mouse assessed as tumor growth inhibition at 37.5 mg/kg, po administered once daily for 21 days and measured every other day relative to control; type: functional; details: MV4-11, 504 h, time 21 day, read-out: TGI
[5] = test system: MV4-11; experiment: Antiproliferative activity against human MV4-11 cells assessed as inhibition of cell proliferation incubated for 72 hrs by CellTiterGlo luminescence assay; type: functional, cell-based; details: MV4-11, 72 h
[6] = molecular target: T2, Bromodomain testis-specific protein (Homo sapiens, UniProt Q58F21); experiment: Inhibition of BRDT BD1 (unknown origin) using biotinylated tetra-acetylated H4 peptide SGRG-K(Ac)-GG-K(Ac)-GLG-K(Ac)-GGA-K(Ac)-RHRK-Biotin as substrate incubated for 1 hr by TR-FRET assay
[7] = molecular target: T2, Bromodomain testis-specific protein; experiment: Inhibition of BRDT BD2 (unknown origin) using biotinylated tetra-acetylated H4 peptide SGRG-K(Ac)-GG-K(Ac)-GLG-K(Ac)-GGA-K(Ac)-RHRK-Biotin as substrate incubated for 1 hr by TR-FRET assay
[8] = molecular target: T3, Bromodomain-containing protein 2 (Homo sapiens, UniProt P25440); experiment: Inhibition of BRD2 BD1 (unknown origin) using biotinylated tetra-acetylated H4 peptide SGRG-K(Ac)-GG-K(Ac)-GLG-K(Ac)-GGA-K(Ac)-RHRK-Biotin as substrate incubated for 1 hr by TR-FRET assay
[9] = molecular target: T3, Bromodomain-containing protein 2; experiment: Inhibition of BRD2 BD2 (unknown origin) using biotinylated tetra-acetylated H4 peptide SGRG-K(Ac)-GG-K(Ac)-GLG-K(Ac)-GGA-K(Ac)-RHRK-Biotin as substrate incubated for 1 hr by TR-FRET assay
[10] = molecular target: T4, Bromodomain-containing protein 3 (Homo sapiens, UniProt Q15059); experiment: Inhibition of BRD3 BD2 (unknown origin) using biotinylated tetra-acetylated H4 peptide SGRG-K(Ac)-GG-K(Ac)-GLG-K(Ac)-GGA-K(Ac)-RHRK-Biotin as substrate incubated for 1 hr by TR-FRET assay
[11] = molecular target: T4, Bromodomain-containing protein 3; experiment: Inhibition of BRD3 BD1 (unknown origin) using biotinylated tetra-acetylated H4 peptide SGRG-K(Ac)-GG-K(Ac)-GLG-K(Ac)-GGA-K(Ac)-RHRK-Biotin as substrate incubated for 1 hr by TR-FRET assay

T1 sequence (Q12809 whole entry): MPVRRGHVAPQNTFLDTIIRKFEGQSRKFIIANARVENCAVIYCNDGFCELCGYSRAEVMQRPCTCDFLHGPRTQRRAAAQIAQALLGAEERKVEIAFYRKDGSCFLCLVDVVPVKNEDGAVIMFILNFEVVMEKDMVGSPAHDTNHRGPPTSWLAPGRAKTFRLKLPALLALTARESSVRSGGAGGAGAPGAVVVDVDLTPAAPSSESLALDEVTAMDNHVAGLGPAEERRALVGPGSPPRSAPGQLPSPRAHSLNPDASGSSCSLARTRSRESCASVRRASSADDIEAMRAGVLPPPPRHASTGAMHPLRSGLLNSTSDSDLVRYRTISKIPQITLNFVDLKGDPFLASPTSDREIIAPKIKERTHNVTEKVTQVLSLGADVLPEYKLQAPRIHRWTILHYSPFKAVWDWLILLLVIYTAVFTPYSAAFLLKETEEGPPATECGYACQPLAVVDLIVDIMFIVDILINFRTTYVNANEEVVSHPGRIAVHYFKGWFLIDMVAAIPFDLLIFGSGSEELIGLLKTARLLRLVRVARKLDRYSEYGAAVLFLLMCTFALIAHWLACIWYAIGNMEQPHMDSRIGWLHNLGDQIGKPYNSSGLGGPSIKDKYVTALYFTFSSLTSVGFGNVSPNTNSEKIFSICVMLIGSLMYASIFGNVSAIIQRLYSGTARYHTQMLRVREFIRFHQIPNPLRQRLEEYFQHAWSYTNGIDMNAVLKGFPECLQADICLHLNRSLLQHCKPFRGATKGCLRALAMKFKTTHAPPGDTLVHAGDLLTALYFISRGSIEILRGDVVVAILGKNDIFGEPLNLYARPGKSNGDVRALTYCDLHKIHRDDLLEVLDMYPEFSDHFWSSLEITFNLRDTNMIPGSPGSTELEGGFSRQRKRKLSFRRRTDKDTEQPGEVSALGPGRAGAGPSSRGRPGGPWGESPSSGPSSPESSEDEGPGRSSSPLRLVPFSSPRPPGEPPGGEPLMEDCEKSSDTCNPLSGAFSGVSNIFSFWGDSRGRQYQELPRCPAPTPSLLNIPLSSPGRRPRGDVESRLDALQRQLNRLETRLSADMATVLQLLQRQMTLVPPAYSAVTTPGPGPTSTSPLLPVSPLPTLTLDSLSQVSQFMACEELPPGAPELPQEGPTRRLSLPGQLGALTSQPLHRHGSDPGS
T4 sequence (Q15059 whole entry): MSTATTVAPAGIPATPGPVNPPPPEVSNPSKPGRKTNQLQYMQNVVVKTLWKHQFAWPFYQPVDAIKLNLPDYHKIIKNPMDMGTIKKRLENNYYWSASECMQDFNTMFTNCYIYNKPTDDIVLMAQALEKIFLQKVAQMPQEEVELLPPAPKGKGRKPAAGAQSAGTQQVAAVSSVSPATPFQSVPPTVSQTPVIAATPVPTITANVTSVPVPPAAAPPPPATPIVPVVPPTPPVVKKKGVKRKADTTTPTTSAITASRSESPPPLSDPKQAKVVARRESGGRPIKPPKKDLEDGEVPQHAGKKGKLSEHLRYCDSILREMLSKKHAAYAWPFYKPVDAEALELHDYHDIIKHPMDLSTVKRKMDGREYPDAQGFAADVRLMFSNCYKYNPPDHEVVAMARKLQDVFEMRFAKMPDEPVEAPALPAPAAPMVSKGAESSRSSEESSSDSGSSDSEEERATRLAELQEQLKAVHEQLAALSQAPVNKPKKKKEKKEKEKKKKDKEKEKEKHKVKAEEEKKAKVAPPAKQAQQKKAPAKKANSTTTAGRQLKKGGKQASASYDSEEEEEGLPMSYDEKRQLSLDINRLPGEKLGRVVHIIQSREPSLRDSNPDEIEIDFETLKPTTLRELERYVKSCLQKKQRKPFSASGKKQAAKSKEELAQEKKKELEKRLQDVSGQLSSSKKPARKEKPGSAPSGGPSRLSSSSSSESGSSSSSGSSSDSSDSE
T3 sequence (P25440 whole entry): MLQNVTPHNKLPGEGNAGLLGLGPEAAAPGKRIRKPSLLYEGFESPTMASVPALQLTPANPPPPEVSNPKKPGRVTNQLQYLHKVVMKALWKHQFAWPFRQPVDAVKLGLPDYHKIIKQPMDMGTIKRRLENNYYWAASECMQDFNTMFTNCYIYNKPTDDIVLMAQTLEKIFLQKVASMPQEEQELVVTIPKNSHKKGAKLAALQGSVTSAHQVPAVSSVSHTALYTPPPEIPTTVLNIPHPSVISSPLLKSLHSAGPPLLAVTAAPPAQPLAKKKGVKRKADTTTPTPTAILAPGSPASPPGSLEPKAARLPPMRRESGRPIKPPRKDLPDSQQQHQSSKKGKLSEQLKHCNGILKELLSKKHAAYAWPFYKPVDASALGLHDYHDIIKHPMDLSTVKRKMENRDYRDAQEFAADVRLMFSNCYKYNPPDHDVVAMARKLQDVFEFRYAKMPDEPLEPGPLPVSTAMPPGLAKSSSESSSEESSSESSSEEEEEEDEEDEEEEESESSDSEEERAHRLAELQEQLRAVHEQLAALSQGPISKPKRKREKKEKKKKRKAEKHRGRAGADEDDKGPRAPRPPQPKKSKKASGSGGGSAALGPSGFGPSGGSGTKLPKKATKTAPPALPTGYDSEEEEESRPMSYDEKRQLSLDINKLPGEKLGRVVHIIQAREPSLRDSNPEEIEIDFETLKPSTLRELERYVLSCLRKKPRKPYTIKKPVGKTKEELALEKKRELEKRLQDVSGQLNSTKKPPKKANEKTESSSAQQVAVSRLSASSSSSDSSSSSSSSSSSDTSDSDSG

Row | Compound | IC50 [1] | IC50 [2] | IC50 [3] | inhibition in vivo at 37.5 mg/kg [4] | IC50 [5] | IC50 [6] | IC50 [7] | IC50 [8] | IC50 [9] | IC50 [10] | IC50 [11]
1 | CCNC(=O)c1cc2c(-c3cc(C(C)(C)O)ccc3Oc3c(C)cc(F)cc3C)cn(C)c(=O)c2[nH]1 [ABBV-744] | 3100 nM | 2800 nM | 39 nM | 55% | 15 nM | – | – | – | – | – | –
2 | CCNC(=O)COc1cc(=O)n(C)cc1-c1cc(C(C)(C)O)ccc1Oc1c(C)cccc1C | – | > 30000 nM | – | – | – | – | – | – | – | – | –
3 | Cc1cc(F)cc(C)c1Oc1ccc(C(C)(C)O)cc1-c1cn(C)c(=O)cc1NCC(=O)N1CCOCC1 | – | > 30000 nM | – | – | – | 4390 nM | 9.7 nM | 13500 nM | 11.1 nM | 15.9 nM | 12800 nM
